Data on 26 compounds can be found in ChEMBL document CHEMBL1137823, “Building predictive models for protein tyrosine phosphatase 1B inhibitors based on discriminating structural features by reassembling medicinal chemistry building blocks” (J Med Chem, 2004).

The test has as its target T1, Tyrosine-protein phosphatase non-receptor type 1 (Homo sapiens, UniProt P18031).
T1 sequence (P18031 whole entry): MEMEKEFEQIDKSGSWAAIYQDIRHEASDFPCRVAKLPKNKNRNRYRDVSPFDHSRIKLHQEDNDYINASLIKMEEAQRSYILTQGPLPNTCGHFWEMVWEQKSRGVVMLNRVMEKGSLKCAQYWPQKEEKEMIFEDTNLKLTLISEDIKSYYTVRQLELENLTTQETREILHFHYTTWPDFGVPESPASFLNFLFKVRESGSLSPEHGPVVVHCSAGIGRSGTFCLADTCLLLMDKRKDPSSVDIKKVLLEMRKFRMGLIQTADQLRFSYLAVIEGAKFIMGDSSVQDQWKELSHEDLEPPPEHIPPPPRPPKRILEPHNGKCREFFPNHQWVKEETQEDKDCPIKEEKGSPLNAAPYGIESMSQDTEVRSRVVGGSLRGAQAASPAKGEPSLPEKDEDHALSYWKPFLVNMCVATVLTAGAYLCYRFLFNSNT
The experiment in a line: Concentration required for 50% inhibition of tyrosine phosphatase 1B.

What is called IC50 is the concentration needed to halve the response being measured. A high value points to weaker potency.

In turn, `CCCC[C@@H](Oc1c(Br)cc(-c2ccc(-c3c(Cc4ccccc4)oc4ccccc34)cc2)cc1Br)C(=O)O` gave an IC50 of 52.5 nM.
`O=C(O)[C@@H](Cc1ccccc1)Oc1ccc(-c2ccc(-c3nc4ccccc4n3Cc3ccccc3)cc2)cc1` had an IC50 of 437 nM.
Consider `O=C(O)[C@@H](Cc1ccccc1)Oc1ccc(-c2ccc(-c3nc4cccnc4n3Cc3ccccc3)cc2)cc1`, for which the IC50 was 214 nM. This IC50 lies about 2-fold lower than the previous one.
To `O=C(O)[C@H](Cc1ccccc1)Oc1ccc(-c2ccc(-c3c(Cc4ccc(F)cc4)oc4ccccc34)cc2)cc1` belongs 603 nM.
To `COC(=O)[C@H](Cc1ccccc1)Oc1ccc(-c2ccc(-c3c(Cc4ccccc4)oc4ccccc34)cc2)cc1` belongs 589 nM; to `CCCCc1oc2ccccc2c1-c1ccc(-c2ccc(OC)cc2)cc1`, 166 nM; to `Cc1oc(-c2ccc(C(F)(F)F)cc2)nc1-c1ccc2c(Br)c(OC(Cc3ccccc3)C(=O)O)ccc2c1` (stereo unspecified), 191 nM.
The same measure for `CCc1oc2ccccc2c1-c1ccc(-c2ccc(O)cc2)cc1`: 31.6 nM.
In turn, `Cc1cc(-c2ccc(-c3c(Cc4ccccc4)oc4ccccc34)cc2)cc(C)c1OS(=O)(=O)c1ccc(C(=O)O)c(O)c1` showed a concentration for half-maximal inhibition (IC50) of 38.9 nM.
To `CCCCc1oc2ccccc2c1C(=O)c1ccc2cc(O)ccc2c1` belongs 3.16 nM.
To `O=C(O)C(Cc1ccccc1)Oc1ccc(-c2ccc(-c3coc4ccccc34)cc2)cc1` (stereo unspecified) belongs 288 nM.
On to `CCCCc1oc2ccccc2c1C(O)c1ccc2cc(O)ccc2c1` (stereo unspecified), for which the IC50 was 912 nM.
To `Oc1ccc(-c2ccc(-c3coc4ccccc34)cc2)cc1` belongs 20 nM.
To `Cc1oc(-c2ccc(C(F)(F)F)cc2)nc1-c1cccc(-c2ccc(OCC(=O)O)cc2)c1` belongs 63.1 nM; to `Cc1oc(-c2ccc(C(F)(F)F)cc2)nc1-c1ccc(-c2ccc(O)cc2)cc1`, 12.6 nM.
The same measure for `CCCCc1oc2ccccc2c1C(=O)c1ccc(-c2ccc(O)cc2)cc1`: 3.98 nM; for `Oc1ccc(-c2ccc(-c3c(Cc4ccccc4)oc4ccccc34)cc2)cc1Br`: 275 nM; for `Cc1oc(-c2ccc(C(F)(F)F)cc2)nc1-c1cccc(-c2ccc(O)cc2)c1`: 10 nM.
With `O=C(O)C(Cc1ccccc1)Oc1ccc(-c2ccc(-c3c(Br)oc4ccccc34)cc2)cc1` (stereo unspecified), the IC50 was 407 nM.
To `Oc1c(Br)cc(-c2ccc(-c3c(Cc4ccccc4)oc4ccccc34)cc2)cc1Br` belongs 479 nM; to `O=C(O)[C@H](Cc1ccccc1)Oc1ccc(-c2ccc(-c3c(Cc4ccccc4)sc4ccccc34)cc2)cc1-c1ccc(Cl)cc1`, 52.5 nM.
To `CCCc1cc(-c2ccc(-c3c(Cc4ccccc4)oc4ccccc34)cc2)ccc1O[C@@H](Cc1ccccc1)C(=O)O` belongs 832 nM; to `O=C(O)[C@@H](Cc1ccccc1)Oc1c(Br)cc(-c2ccc(-c3c(Cc4ccccc4)oc4ccccc34)cc2)cc1Br`, 38 nM; to `CCCCc1oc2ccccc2c1Cc1ccc2ccc(O)cc2c1`, 776 nM.
`CCCCc1oc2ccccc2c1C(O)c1ccc2ccc(OCn3cnnn3)c(Br)c2c1` (stereo unspecified): the IC50 is 912 nM.
To `O=C(O)c1ccc(S(=O)(=O)Oc2ccc(-c3ccc(-c4c(Cc5ccccc5)oc5ccccc45)cc3)cc2[N+](=O)[O-])cc1O` belongs 39.8 nM.
